Test results: EP4567044A1, “HIGH-STABILITY RECOMBINANT COLLAGEN, AND CONSTRUCTION METHOD THEREFOR AND USE THEREOF” (Jiangsu Trautec Medical Technology Co., Ltd., priority 2022, dated 2024)

Tested on: mammalian L-929 cells
Type: cell-based
Method: CCIC Huatongwei International Inspection (Suzhou) Co., Ltd. was entrusted to test the potential cytotoxic effect of a recombinant collagen M4 using mammalian L-929 cells cultured in vitro in accordance with method requirements of GB/T16886.5-2017. A test sample and a control sample were placed in a MEM medium including a 10% fetal bovine serum, and extracted in a 37°C incubator for 24 h. After the end of extraction, a cell medium is removed from ta 96-well plate (10^4 cells/well) cultured for 24 h, replaced with the corresponding extraction liquid, and cultured in a cell culture incubator (37°C, 5% CO2, humidity >90% ) for 24 h. After the end of culture, the morphology and lysis of a cell was observed under a microscope. The cytotoxicity value of a test sample was measured using a MTT method. […] After incubation for 24 h, the cell morphology of the extraction liquid with a 100% concentration of the test sample was basically intact, and a cell viability value was 83.6%. The recombinant collagen M4 had no potential cytotoxic effect under the cytotoxicity test conditions of a MTT method.

`CCN(CC)C(=S)[S-].CCN(CC)C(=S)[S-].[Zn+2]` [ZDEC] was tested. Which cytotoxic effect did it give?
Its cytotoxic effect is “severe cytotoxic reaction”.
